According to US7741361B2, “Glucocorticoid mimetics, methods of making them, pharmaceutical compositions, and uses thereof” (Boehringer Ingelheim Pharmaceuticals, Inc., priority 2004, dated 2010):

test system: glucocorticoid receptor; test: Glucocorticoid receptor cell assays (agonist activity in one or more of the above assays); type: cell-based; settings: assay not specified
Method: B. Glucocorticoid Receptor Cell Assays
1. Induction of Aromatase in Fibroblasts (Cell Assay for Transactivation)
Dexamethasone, a synthetic ligand to the glucocorticoid receptor (GR), induces expression of aromatase in human foreskin fibroblast cells. The activity of aromatase is measured by the conversion of testosterone to estradiol in culture media.
Human foreskin fibroblast cells (ATCC Cat. No. CRL-2429, designation CCD112SK) are plated on 96 well plates at 50,000 cells per well 5 days before use, in Iscove's Modified Dulbecco's Media (GibcoBRL Life Technologies Cat No. 12440-053) supplemented with 10% charcoal filtered FBS (Clonetech Cat No. SH30068) and Gentamycin (GibcoBRL Life Technologies Cat. No. 15710-064). On the day of the experiment, the media in the wells is replaced with fresh media. Cells are treated with test compounds to final concentrations of 10^−5 M to 10^−8 M, and testosterone to a final concentration of 300 ng/mL. Each well has a total volume of 100 μL. Samples are made in duplicates. Control wells include: (a) wells that receive testosterone only, and (b) wells that receive testosterone plus 2 μM of dexamethasone to provide maximum induction of aromatase. Plates are incubated at 37° C. overnight (15 to 18 hours), and supernatants are harvested at the end of incubation. Estradiol in the supernatant is measured using ELISA kits for estradiol (made by ALPCO, obtained from American Laboratory Products Cat. No. 020-DR-2693) according to the manufacture's instruction. The amount of estradiol is inversely proportional to the ELISA signals in each well. The extent of aromatase induction by test compounds is expressed as a relative percentage to dexamethasone. EC50 values of test compounds are derived by non-linear curve fitting.
2. Inhibition of IL-6 Production in Fibroblasts (Cell Assay for Transrepression)
Human foreskin fibroblast cells produce IL-6 in response to stimulation by pro-inflammatory cytokine IL-1.
Human foreskin fibroblast cells (ATCC Cat. No. CRL-2429) are plated on 96 well plates at 5,000 cells per well the day before use, in Iscove's Modified Dulbecco's Media (GibcoBRL Life Technologies Cat. No. 12440-053) supplemented with 10% charcoal filtered FBS (Clonetech Cat. No. SH30068) and Gentamycin (GibcoBRL Life Technologies Cat. No. 15710-064). On the next day, media in the wells is replaced with fresh media. […] IL-6 levels in the supernatants are determined by the ELISA kits for IL-6 (MedSystems Diagnostics GmbH, Vienna, Austria, Cat. No. BMS213TEN) according to manufacture's instructions. […]
Evaluation of agonist or antagonist activity of compounds binding to the glucocorticoid receptor may be determined by any of the assays. […]

Question: How did the “activity as an agonist of the glucocorticoid receptor function” value (shortened to “activity”) turn out when `Cc1ccc2[nH]cc(CC(NS(=O)(=O)c3c(N)cc(Cl)cc3Cl)C(F)(F)F)c2c1` (stereo not shown) [2-Amino-4,6-dichloro-N-[2,2,2-trifluoro-1-(5-methyl-1H-indol-3-ylmethyl)ethyl]benzenesulfonamide] was run?
Answer: The value was “activity as an agonist”.

Question: `Nc1cc(Cl)cc(Cl)c1S(=O)(=O)NC(Cc1c[nH]c2ccccc12)C(F)(F)F` (stereo not shown) [2-Amino-4,6-dichloro-N-[2,2,2-trifluoro-1-(1H-indol-3-ylmethyl)ethyl]benzenesulfonamide] was tested. Which “activity” value did it give?
Answer: The value was “activity as an agonist”.

Question: How did the “activity” value turn out when `Cc1cc(C)c(S(=O)(=O)NC(Cc2c[nH]c3ccc(C)cc23)C(F)(F)F)c(C)c1` (stereo not shown) [2,4,6-Trimethyl-N-[2,2,2-trifluoro-1-(5-methyl-1H-indol-3-ylmethyl)ethyl]benzenesulfonamide] was run?
Answer: The value was “activity as an agonist”.

Question: How did the “activity” value turn out when `Cc1cc(C)c(S(=O)(=O)NC(Cc2c[nH]c3ccccc23)C(F)(F)F)c(C)c1` (stereo not shown) [2,4,6-Trimethyl-N-[2,2,2-trifluoro-1-(1H-indol-3-ylmethyl)ethyl]benzenesulfonamide] was run?
Answer: Its value is “activity as an agonist”.
